Source: the supplement of paper PMC11061612

What was measured:
Assay in all cases: combination Emax (second highest fraction inhibited in the dose matrix, 72 h); higher = more inhibition; extreme values may be limits of the assay
[1] = test system: NCI-H2023 (Non-Small Cell Lung Carcinoma)
Summary of the method: (§1)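 After 24 hours at 37°C and 5% CO2 in 1536-well plates, cells in DMEM/F12 or RPMI plus 10% FBS received two-drug dose matrices for 72 hours. Viability came from CellTiter-Glo 2.0 luminescence and was scaled as inhibition, anchored at 0 by vehicle wells and at 1 by blank wells. Combination Emax is taken as the second-highest inhibition in the matrix, and Bliss excess as the observed combination effect less EA + EB − EA·EB, with EA and EB the single-agent effects.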

[2] = test system: OCI-M1 (Acute Myeloid Leukemia)
Summary of the method: as §1

[3] = test system: NTERA-2-cl-D1 (Other Solid Carcinomas)
Summary of the method: as §1

[4] = test system: OVKATE (Ovarian Carcinoma)
Summary of the method: as §1

[5] = test system: TOV-21G (Ovarian Carcinoma)
Summary of the method: as §1

[6] = test system: C2BBe1 (Colorectal Carcinoma)
Summary of the method: as §1

[7] = test system: JURL-MK1 (Chronic Myelogenous Leukemia)
Summary of the method: as §1

[8] = test system: NCI-H2009 (Lung Adenocarcinoma)
Summary of the method: as §1

[9] = test system: COR-L105 (Lung Adenocarcinoma)
Summary of the method: as §1

[10] = test system: RPMI-8402 (T-Lymphoblastic Leukemia)
Summary of the method: as §1

[11] = test system: SNU-1 (Gastric Carcinoma)
Summary of the method: as §1

[12] = test system: RS4-11 (B-Lymphoblastic Leukemia)
Summary of the method: as §1

A375 (Melanoma) = test system: A375 (Melanoma)
Summary of the method: as §1

[13] = test system: SCC90 (Head and Neck Carcinoma)
Summary of the method: as §1

NCI-H2452 (Mesothelioma) = test system: NCI-H2452 (Mesothelioma)
Summary of the method: as §1

SK-N-DZ (Neuroblastoma) = test system: SK-N-DZ (Neuroblastoma)
Summary of the method: as §1

[14] = test system: NCI-H1975 (Lung Adenocarcinoma)
Summary of the method: as §1

[15] = test system: SBC-5 (Small Cell Lung Carcinoma)
Summary of the method: as §1

[16] = test system: BT-474 (Breast Carcinoma)
Summary of the method: as §1

Row | SMILES | combination Emax [1] | combination Emax [2] | combination Emax [3] | combination Emax [4] | combination Emax [5] | combination Emax [6] | combination Emax [7] | combination Emax [8] | combination Emax [9] | combination Emax [10] | combination Emax [11] | combination Emax [12] | combination Emax (A375 (Melanoma)) | combination Emax [13] | combination Emax (NCI-H2452 (Mesothelioma)) | combination Emax (SK-N-DZ (Neuroblastoma)) | combination Emax [14] | combination Emax [15] | combination Emax [16]
1 | CN(CCO)CC[C@H](CSc1ccccc1)Nc1ccc(S(=O)(=O)NC(=O)c2ccc(N3CCC([C@@H](O)c4ccccc4-c4ccc(Cl)cc4)CC3)cc2)cc1S(=O)(=O)C(F)(F)F [AZD4320] + CN(C)CCCOc1ccc(-c2ccc3ncc4c(c3c2)n(C2CCOCC2)c(=O)n4C)cn1 [AZD0156] (first compound max 1 µM, 7x7, partner max 1 µM) | 0.22 | 0.988 | 0.416 | 0.29 | 0.209 | 0.188 | 0.825 | 0.0839 | 0.261 | 0.903 | 0.397 | 1 | 0.129 | 0.496 | 0.246 | 0.697 | 0.256 | 0.102 | 0.211
2 | Cc1c2c(nn1C)CSCc1cc(n(C)n1)CSc1cc(c3ccccc3c1)OCCCc1c(C(=O)O)n(C)c3c-2c(Cl)ccc13 [AZD5991] + Cn1cnc2c(F)c(Nc3ccc(Br)cc3Cl)c(C(=O)NOCCO)cc21 [Selumetinib] (first compound max 1 µM, 7x7, partner max 3 µM) | 0.294 | 0.618 | 0.562 | 0.265 | 0.335 | 0.425 | 0.952 | 0.526 | 0.463 | 0.692 | 0.605 | 0.497 | 0.895 | 0.99 | 0.32 | 0.252 | 0.816 | 0.415 | 0.246
3 | CC1(C)CCC(CN2CCN(c3ccc(C(=O)NS(=O)(=O)c4ccc(NCC5CCOCC5)c([N+](=O)[O-])c4)c(Oc4cnc5[nH]ccc5c4)c3)CC2)=C(c2ccc(Cl)cc2)C1 [Venetoclax] + CN(C)CCCOc1ccc(-c2ccc3ncc4c(c3c2)n(C2CCOCC2)c(=O)n4C)cn1 [AZD0156] (first compound max 1 µM, 7x7, partner max 1 µM) | 0.338 | 0.19 | 0.755 | 0.208 | 0.18 | 0.253 | 0.262 | 0.273 | 0.186 | 0.188 | 0.225 | 1 | 0.216 | 0.324 | 0.277 | 0.256 | 0.216 | 0.163 | 0.175
4 | CC1(C)CCC(CN2CCN(c3ccc(C(=O)NS(=O)(=O)c4ccc(NCC5CCOCC5)c([N+](=O)[O-])c4)c(Oc4cnc5[nH]ccc5c4)c3)CC2)=C(c2ccc(Cl)cc2)C1 [Venetoclax] + COc1cc(Nc2ncc3c(n2)-c2ccc(Cl)cc2C(c2c(F)cccc2OC)=NC3)ccc1C(=O)O [Alisertib] (first compound max 1 µM, 7x7, partner max 10 µM) | 0.477 | 0.815 | 0.954 | 0.311 | 0.682 | 0.516 | 0.964 | 0.5 | 0.377 | 0.718 | 0.327 | 1 | 0.466 | 0.687 | 0.573 | 0.888 | 0.469 | 0.615 | 0.242
5 | CC(=O)Nc1cccc(-n2c(=O)n(C3CC3)c(=O)c3c(Nc4ccc(I)cc4F)n(C)c(=O)c(C)c32)c1 [Trametinib] + Cc1nc(-c2cn3c(n2)-c2ccc(-c4cnn(C(C)(C)C(N)=O)c4)cc2OCC3)n(C(C)C)n1 [Taselisib] (first compound max 1 µM, 7x7, partner max 10 µM) | 0.769 | 1 | 0.666 | 0.583 | 0.817 | 0.916 | 1 | 0.955 | 0.9 | 0.777 | 0.769 | 0.35 | 0.935 | 0.997 | 0.617 | 0.521 | 0.96 | 0.784 | 0.841
6 | C=CCn1c(=O)c2cnc(Nc3ccc(N4CCN(C)CC4)cc3)nc2n1-c1cccc(C(C)(C)O)n1 [AZD1775] + C[C@@H]1COCCN1C2=NC(=NC(=C2)C3(CC3)[S@](=N)(=O)C)C4=C5C=CNC5=NC=C4 [AZD6738] (first compound max 1 µM, partner max 10 µM) | 0.885 | 0.969 | 0.943 | 0.422 | 0.71 | 0.486 | 1 | 0.799 | 0.595 | 1 | 0.817 | 0.994 | 0.766 | 0.927 | 0.747 | 1 | 0.477 | 0.929 | 0.316
7 | CN(C)CCCOc1ccc(-c2ccc3ncc4c(c3c2)n(C2CCOCC2)c(=O)n4C)cn1 [AZD0156] + C[C@@H]1COCCN1C2=NC(=NC(=C2)C3(CC3)[S@](=N)(=O)C)C4=C5C=CNC5=NC=C4 [AZD6738] (first compound max 1 µM, 7x7, partner max 10 µM) | 0.836 | 0.982 | 0.595 | 0.257 | 0.652 | 0.434 | 0.998 | 0.459 | 0.472 | 0.983 | 0.769 | 0.943 | 0.815 | 0.358 | 0.559 | 0.975 | 0.407 | 0.813 | 0.198
8 | Cc1c2c(nn1C)CSCc1cc(n(C)n1)CSc1cc(c3ccccc3c1)OCCCc1c(C(=O)O)n(C)c3c-2c(Cl)ccc13 [AZD5991] + C1CN(CCC1(C(=O)N[C@@H](CCO)C2=CC=C(C=C2)Cl)N)C3=NC=NC4=C3C=CN4 [Capivasertib] (first compound max 1 µM, 7x7, partner max 3 µM) | 0.299 | 0.115 | 0.529 | 0.273 | 0.634 | 0.251 | 0.729 | 0.158 | 0.248 | 0.929 | 0.613 | 0.519 | 0.2 | 0.966 | 0.253 | 0.182 | 0.623 | 0.471 | 0.746
9 | CN(CCO)CC[C@H](CSc1ccccc1)Nc1ccc(S(=O)(=O)NC(=O)c2ccc(N3CCC([C@@H](O)c4ccccc4-c4ccc(Cl)cc4)CC3)cc2)cc1S(=O)(=O)C(F)(F)F [AZD4320] + C=CCn1c(=O)c2cnc(Nc3ccc(N4CCN(C)CC4)cc3)nc2n1-c1cccc(C(C)(C)O)n1 [AZD1775] (first compound max 1 µM, partner max 1 µM) | 0.623 | 1 | 0.775 | 0.528 | 0.721 | 0.346 | 1 | 0.764 | 0.478 | 1 | 0.929 | 1 | 0.749 | 0.85 | 0.737 | 1 | 0.562 | 0.406 | 0.526
10 | CN(CCO)CC[C@H](CSc1ccccc1)Nc1ccc(S(=O)(=O)NC(=O)c2ccc(N3CCC([C@@H](O)c4ccccc4-c4ccc(Cl)cc4)CC3)cc2)cc1S(=O)(=O)C(F)(F)F [AZD4320] + Cn1cnc2c(F)c(Nc3ccc(Br)cc3Cl)c(C(=O)NOCCO)cc21 [Selumetinib] (first compound max 1 µM, 7x7, partner max 3 µM) | 0.268 | 1 | 0.987 | 0.501 | 0.503 | 0.587 | 0.999 | 0.606 | 0.543 | 0.999 | 0.952 | 1 | 0.749 | 0.881 | 0.346 | 0.827 | 0.417 | 0.245 | 0.282
11 | CC1(C)CCC(CN2CCN(c3ccc(C(=O)NS(=O)(=O)c4ccc(NCC5CCOCC5)c([N+](=O)[O-])c4)c(Oc4cnc5[nH]ccc5c4)c3)CC2)=C(c2ccc(Cl)cc2)C1 [Venetoclax] + C1CN(CCC1(C(=O)N[C@@H](CCO)C2=CC=C(C=C2)Cl)N)C3=NC=NC4=C3C=CN4 [Capivasertib] (first compound max 1 µM, 7x7, partner max 3 µM) | 0.424 | 0.157 | 0.692 | 0.199 | 0.646 | 0.362 | 0.291 | 0.128 | 0.23 | 0.498 | 0.256 | 1 | 0.175 | 0.813 | 0.272 | 0.307 | 0.562 | 0.188 | 0.383
12 | Cc1c2c(nn1C)CSCc1cc(n(C)n1)CSc1cc(c3ccccc3c1)OCCCc1c(C(=O)O)n(C)c3c-2c(Cl)ccc13 [AZD5991] + C[C@@H](Nc1cc(F)cc(F)c1)c1cc(C(=O)N(C)C)cc2c(=O)cc(N3CCOCC3)oc12 [AZD8186] (first compound max 1 µM, 7x7, partner max 3 µM) | 0.377 | 0.0662 | 0.682 | 0.353 | 0.253 | 0.335 | 0.629 | 0.165 | 0.238 | 0.888 | 0.652 | 0.591 | 0.289 | 0.903 | 0.357 | 0.232 | 0.431 | 0.845 | 0.594
